Test results as given in article PMC2723102, “The interactome of the amyloid β precursor protein family members is shaped by phosphorylation of their intracellular domains” (Molecular Neurodegeneration, 2009).

Experiments:
Format in all cases: binding
[1] = biological target: T1, GST-Grb2 (Homo sapiens, UniProt P62993); experiment: BIAcore surface plasmon resonance, GST-Grb2; conditions: SPR, BIAcore 3000, strep-tag peptide amine coupled to CM-5 chip (4500–7500 RU), analyte GST-Grb2
T1 construct: All these targets analyzed contain either an SH2 or a PTB domain fused to GST; made in house; host or cells: bacterial cultures
Excerpt: (§1) Binding of GST and GST-Grb2, NUMB p71, and X11β domains to strep-tag AID peptide or different phosphorylation forms was monitored by surface plasmon resonance (SPR) on a BIAcore 3000 machine (BIAcore, Neuchâtel, Switzerland). The strep-tag peptide and different phosphorylation forms of AID peptides were covalently amine coupled to a CM-5 sensor chip by use of the amine covalent coupling. An immobilization level of 4500–7500 resonance units was obtained. A nonderivatized flowcell serves as a reference surface. Interactions between GST and GST-Grb2, NUMB p71, and X11β to strep-tag peptides were determined by the change in signal measured in RU.

[2] = biological target: T2, GST-NUMB-p71 (Homo sapiens, UniProt P49757); experiment: BIAcore surface plasmon resonance, GST-NUMB-p71; conditions: SPR, BIAcore 3000, strep-tag peptide amine coupled to CM-5 chip (4500–7500 RU), analyte GST-NUMB-p71
T2 construct: All these targets analyzed contain either an SH2 or a PTB domain fused to GST; made in house; host or cells: bacterial cultures
T2 sequence (P49757 33-182 isoform P49757-3): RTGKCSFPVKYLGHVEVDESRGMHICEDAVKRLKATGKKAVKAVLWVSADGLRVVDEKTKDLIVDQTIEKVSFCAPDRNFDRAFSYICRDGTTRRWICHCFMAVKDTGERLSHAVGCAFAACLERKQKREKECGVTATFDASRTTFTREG
Excerpt: as §1

[3] = biological target: T3, GST-X11β (Homo sapiens, UniProt Q99767); experiment: BIAcore surface plasmon resonance, GST-X11β; conditions: SPR, BIAcore 3000, strep-tag peptide amine coupled to CM-5 chip (4500–7500 RU), analyte GST-X11β
T3 construct: All these targets analyzed contain either an SH2 or a PTB domain fused to GST; made in house; host or cells: bacterial cultures
T3 sequence (Q99767 368-555 limits assumed): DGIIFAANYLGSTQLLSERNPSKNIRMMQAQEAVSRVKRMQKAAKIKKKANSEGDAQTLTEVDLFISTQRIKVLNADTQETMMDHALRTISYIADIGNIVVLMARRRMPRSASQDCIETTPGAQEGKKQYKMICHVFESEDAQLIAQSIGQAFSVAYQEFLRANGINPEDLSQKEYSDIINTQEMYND
Excerpt: as §1

T1 sequence (P62993 60-152 limits assumed): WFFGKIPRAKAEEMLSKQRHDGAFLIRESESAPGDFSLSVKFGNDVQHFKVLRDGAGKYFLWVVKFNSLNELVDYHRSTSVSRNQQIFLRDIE

| Kd [2] [nM] | Compound | Kd [1] [nM] | Kd [3] [nM] |
| --- | --- | --- | --- |
| 997 | CC[C@H](C)[C@H](NC(=O)[C@H](CO)NC(=O)[C@@H](NC(=O)[C@H](Cc1ccc(O)cc1)NC(=O)[C@H](CCC(N)=O)NC(=O)[C@H](CCCCN)NC(=O)[C@H](CCCCN)NC(=O)[C@H](CCCCN)NC(=O)[C@H](CC(C)C)NC(=O)[C@H](CCSC)NC(=O)[C@@H](N)C(C)C)[C@@H](C)O)C(=O)N[C@@H](Cc1c[nH]cn1)C(=O)N[C@@H](Cc1c[nH]cn1)C(=O)NCC(=O)N[C@H](C(=O)N[C@H](C(=O)N[C@@H](CCC(=O)O)C(=O)N[C@H](C(=O)N[C@@H](CC(=O)O)C(=O)N[C@@H](C)C(=O)N[C@@H](C)C(=O)N[C@H](C(=O)N[C@H](C(=O)N1CCC[C@H]1C(=O)N[C@@H](CCC(=O)O)C(=O)N[C@@H](CCC(=O)O)C(=O)N[C@@H](CCCNC(=N)N)C(=O)N[C@@H](Cc1c[nH]cn1)C(=O)N[C@@H](CC(C)C)C(=O)N[C@@H](CO)C(=O)N[C@@H](CCCCN)C(=O)N[C@@H](CCSC)C(=O)N[C@@H](CCC(N)=O)C(=O)N[C@@H](CCC(N)=O)C(=O)N[C@@H](CC(N)=O)C(=O)NCC(=O)N[C@@H](Cc1ccc(OP(=O)(O)O)cc1)C(=O)N[C@@H](CCC(=O)O)C(=O)N[C@@H](CC(N)=O)C(=O)N1CCC[C@H]1C(=O)N[C@H](C(=O)N[C@@H](Cc1ccc(O)cc1)C(=O)N[C@@H](CCCCN)C(=O)N[C@@H](Cc1ccccc1)C(=O)N[C@@H](Cc1ccccc1)C(=O)N[C@@H](CCC(=O)O)C(=O)N[C@@H](CCC(N)=O)C(=O)N[C@@H](CCSC)C(=O)N[C@@H](CCC(N)=O)C(=O)N[C@@H](CC(N)=O)C(=O)O)[C@@H](C)O)[C@@H](C)O)C(C)C)C(C)C)C(C)C)C(C)C [AIDpY] | 2.57 |  |
|  | CC[C@H](C)[C@H](NC(=O)[C@H](CO)NC(=O)[C@@H](NC(=O)[C@H](Cc1ccc(O)cc1)NC(=O)[C@H](CCC(N)=O)NC(=O)[C@H](CCCCN)NC(=O)[C@H](CCCCN)NC(=O)[C@H](CCCCN)NC(=O)[C@H](CC(C)C)NC(=O)[C@H](CCSC)NC(=O)[C@@H](N)C(C)C)[C@@H](C)O)C(=O)N[C@@H](Cc1c[nH]cn1)C(=O)N[C@@H](Cc1c[nH]cn1)C(=O)NCC(=O)N[C@H](C(=O)N[C@H](C(=O)N[C@@H](CCC(=O)O)C(=O)N[C@H](C(=O)N[C@@H](CC(=O)O)C(=O)N[C@@H](C)C(=O)N[C@@H](C)C(=O)N[C@H](C(=O)N[C@H](C(=O)N1CCC[C@H]1C(=O)N[C@@H](CCC(=O)O)C(=O)N[C@@H](CCC(=O)O)C(=O)N[C@@H](CCCNC(=N)N)C(=O)N[C@@H](Cc1c[nH]cn1)C(=O)N[C@@H](CC(C)C)C(=O)N[C@@H](CO)C(=O)N[C@@H](CCCCN)C(=O)N[C@@H](CCSC)C(=O)N[C@@H](CCC(N)=O)C(=O)N[C@@H](CCC(N)=O)C(=O)N[C@@H](CC(N)=O)C(=O)NCC(=O)N[C@@H](Cc1ccc(OP(=O)(O)O)cc1)C(=O)N[C@@H](CCC(=O)O)C(=O)N[C@@H](CC(N)=O)C(=O)N1CCC[C@H]1C(=O)N[C@H](C(=O)N[C@@H](Cc1ccc(O)cc1)C(=O)N[C@@H](CCCCN)C(=O)N[C@@H](Cc1ccccc1)C(=O)N[C@@H](Cc1ccccc1)C(=O)N[C@@H](CCC(=O)O)C(=O)N[C@@H](CCC(N)=O)C(=O)N[C@@H](CCSC)C(=O)N[C@@H](CCC(N)=O)C(=O)N[C@@H](CC(N)=O)C(=O)O)[C@@H](C)O)[C@@H](C)OP(=O)(O)O)C(C)C)C(C)C)C(C)C)C(C)C [AIDpTpY] | 0.413 | 13.1 |
